Article PMC7504435, “Combined Protein- and Ligand-Observed NMR Workflow to Screen Fragment Cocktails against Multiple Proteins: A Case Study Using Bromodomains” (Molecules, 2020)

How the values were obtained:
[1] = target: BPTF bromodomain (Homo sapiens, UniProt Q12830); test: 1H CPMG NMR deconvolution of hit mixtures, BPTF; assay type: binding; set-up: deconvolution of the hit mixtures using the non-fluorine-labeled bromodomains; made in house; host or cells: E. coli BL21(DE3); details: 10 µM protein, 100 µM ligand
Description: (§1) The second step is a ^1H CPMG NMR deconvolution of the hit mixtures using the non-fluorine-labeled bromodomains. ^1H CPMG NMR employs a T2 filter to take advantage of the difference in transverse relaxation time between protein and small molecules to filter out the bound-state ligand(s). Unlike the PrOF NMR assay, a single protein is assayed in each experiment. A binding event is characterized by a decrease in ligand resonance intensity from the ligand alone spectrum to the ligand + protein spectrum. A hit is defined as a decrease in resonance intensity ≥ 20%. The ^1H CPMG NMR assay can be tuned by changing the protein or ligand concentration, filter length (Figure 1), or hit criteria depending on how stringent the desired hit rate is. The number of ^1H CPMG NMR deconvolution experiments is directly informed from the first step. If a mixture from the first step was only a hit for one protein, a single ^1H CPMG NMR deconvolution experiment is needed. If a mixture from the first step was a hit for both proteins, two separate ^1H CPMG NMR deconvolutions experiments are needed to determine the fragments that bind to each protein.
(§2) ^1H CPMG NMR. ^1H CPMG NMR screen data were acquired on Bruker Avance III HD 500 with the 5 mm Prodigy TCI cryoprobe inverse cryoprobe (^1H 2500:1 S/N). Competition ^1H CPMG NMR data were acquired on Bruker 700 MHz Avance with a CryoProbe 5 mm TXI (^1H S:N with H2O suppression (2mM sucrose) - 900:1) and excitation sculpting water suppression. Proteins were present at 10 µM in 50 mM phosphate, 100 mM NaCl, pH 7.4 in 100% D2O. In separate NMR tubes, a ^1H CPMG NMR pulse was applied to a 1) mixture of ligands (individual ligands present at 100 µM for the screen and 50 µM for competition experiments) and 2) ligands + protein. […] For the competition experiments, τ was increased to 4.0 ms.

[2] = target: PfGCN5 bromodomain (Plasmodium falciparum, UniProt Q8IB67); test: 1H CPMG NMR deconvolution of hit mixtures, PfGCN5; assay type: binding; details: 10 µM protein, 100 µM ligand
Description: as §1, §2

Chain of PfGCN5 bromodomain (Q8IB67 entry or part of it): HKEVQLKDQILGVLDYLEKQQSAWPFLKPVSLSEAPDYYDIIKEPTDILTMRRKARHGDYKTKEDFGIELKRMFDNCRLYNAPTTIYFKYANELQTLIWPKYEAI

Compound | BPTF CPMG % decrease [1] [%] | PfGCN5 CPMG % decrease [2] [%]
CC(C)(C)NC(=O)c1cnc2n(c1=O)CCS2 [Fragment F0550-0006] | 63 | 
c1cc(OCC2CO2)ccc1OCC1CO1 (centres unmarked) [Fragment F0777-0005] | 54 | 
O=C1CSCCN1 [Fragment F0848-0336] | 33 | 
Cc1nnc(SCC(=O)N2CCCCCC2)n(N)c1=O [Fragment F1847-0012] | 36 | 
CCOCCCNc1ncnc2c1cnn2C [Fragment F1852-0063] | 38 | 
C=CCNC1CCN(C)C1=O (centres unmarked) [Fragment F1905-0298] | 46 | 
C1CC2NCCOC2C1.Cl (centres unmarked) [Fragment F1905-0651] | 75 | 
CC(C)(C)OC(=O)N1CCC2CNCC21 (centres unmarked) [Fragment F1905-6593] |  | 21
O=C1CCCC2CN(Cc3ccccc3)CC12 (centres unmarked) [Fragment F1905-6609] |  | 50
CC12CCC3(C)OCC(CO)(CO1)N23 (centres unmarked) [Fragment F1983-0015] |  | 50
Cc1nnc(CN)o1.Cl [Fragment F2135-1033] | 23 | 
Cc1cc(C)n(CC2CCNCC2)n1.Cl.Cl [Fragment F2145-0759] | 29 | 
CC(C)C1NC(=O)CNC1=O (centres unmarked) [Fragment F2147-0955] |  | 50
CC(=O)NCC1COCCN1.CC(=O)NCC1COCCN1.Cl.Cl.Cl (centres unmarked) [Fragment F2147-1723] | 23 | 
CC(C)(C)OC(=O)N1CCCC(C(=O)O)C1 (centres unmarked) [Fragment F2158-1186] | 29 | 
Cc1csc(NC(=O)C2CCNCC2)n1.Cl [Fragment F2158-1471] | 40 | 
Cc1onc(N)c1S(=O)(=O)N1CCC(C)CC1 [Fragment F2158-1788] |  | 40
CC(C)(C)OC(=O)N1CC(Oc2ncccn2)C1 [Fragment F2158-1792] | 54 | 68
Cc1c(C(=O)O)n[nH]c1C1CC1 [Fragment F2185-0055] | 31 | 29
Cc1ccc(C)c(S(=O)(=O)N2CCCC2C(=O)O)c1 (centres unmarked) [Fragment F2189-0042] | 35 | 32
CC(C)Nc1nc2c(c(=O)[nH]c(=O)n2C)n1CC(O)CO (centres unmarked) [Fragment F2477-0016] | 34 | 
CCCSc1nnc2[nH]c(=O)c(C)c(C)n12 [Fragment F2513-0609] | 46 | 
CCCCC(=O)Nc1sc(C)c(C)c1C(N)=O [Fragment F2590-0203] | 53 | 
CCCCSc1nnc(-c2cn(C)nc2OC)n1CC [Fragment F5003-0140] | 52 | 36
CCC(C)Sc1nnc(-c2cn(C)nc2OC)n1CC (centres unmarked) [Fragment F5003-0141] | 52 | 36
Cc1nnc(C2CCN(C(=O)c3ccsc3)CC2)s1 [Fragment F5496-0578] | 55 | 83

Compound | BPTF CPMG % decrease [1] [%] | PfGCN5 CPMG % decrease [2] [%]
Cc1nc(NCCNC(=O)C(C)C)cc(N2CCCC2)n1 [Fragment F5626-0027] | 77 | 75
CCNc1cc(NCCNC(=O)CC(C)C)nc(C)n1 [Fragment F5626-0058] | 50 | 47
CSCCC(C)(O)CNC(=O)NC1CCOCC1 (centres unmarked) [Fragment F6089-9820] | 23 | 
COC(CNC(=O)C1CN(C(=O)c2cc(C)on2)C1)OC [Fragment F6125-0675] | 32 | 
O=C(NCCC(O)C1CC1)Nc1ccccc1Cl (centres unmarked) [Fragment F6190-0472] | 36 | 
CC(C)(C)C(O)CCNC(=O)COc1ccc(F)cc1 (centres unmarked) [Fragment F6190-0594] | 48 | 
CS(=O)(=O)NCC(c1ccoc1)N1CCSCC1 (centres unmarked) [Fragment F6353-5787] |  | 40
O=C1NCCN1C(=O)NCC(c1ccsc1)N1CCC1 (centres unmarked) [Fragment F6353-7315] | 23 | 
COCC(=O)NC(C)Cc1ccc2c(c1)CCO2 (centres unmarked) [Fragment F6356-0896] |  | 25
Cc1nc(N2CCCC2)nc(C)c1NS(C)(=O)=O [Fragment F6438-0300] |  | 42
CCC(=O)NCc1nc(C)cc(N2CCOCC2)n1 [Fragment F6438-0864] |  | 67
CC(C)CC(=O)NCc1nccc(N(C)C)n1 [Fragment F6438-1301] |  | 50
CC(C)C(=O)N1CCN(c2cnnc(N(C)C)c2)CC1 [Fragment F6438-1468] | 62 | 100
CC(C)CS(=O)(=O)C1CN(S(=O)(=O)C(C)C)C1 [Fragment F6442-1971] |  | 22
CCCCS(=O)(=O)N1CC(S(=O)(=O)CC(C)C)C1 [Fragment F6442-1973] |  | 26
COc1ccccc1C(CNC(=O)C1CC1)OC (centres unmarked) [Fragment F6451-0004] |  | 26
COC(C)(CNS(C)(=O)=O)c1cccc(Cl)c1 (centres unmarked) [Fragment F6452-1288] | 32 | 57
COc1ccc(C2CCCCN(S(C)(=O)=O)C2)cc1 (centres unmarked) [Fragment F6464-1254] | 69 | 33
Cc1cc(C(=O)N2CC(N3C(=O)CSC3=O)C2)n(C)n1 [Fragment F6473-4843] |  | 25
CC(C)(C)C(=O)N1CCSC(c2ccccc2)CC1 (centres unmarked) [Fragment F6481-0067] |  | 53
O=C(C1CC1)N1CCCC(Cc2nc(C3CC3)no2)C1 (centres unmarked) [Fragment F6497-0456] | 100 | 100
CC(C(=O)NCc1cnn2c1CCCC2)n1cccn1 (centres unmarked) [Fragment F6513-5793] | 72 | 49
O=C(C1CC=CCC1)N1CCC(c2ccc3c(c2)OCO3)C1 (centres unmarked) [Fragment F6518-4331] |  | 58
OCC1CCCN1c1cccc(C(F)(F)F)n1 (centres unmarked) [Fragment F6541-4533] | 48 | 
Cc1ccc(S(=O)(=O)O)cc1.N#CC1CNCCO1 [Fragment F8880-7458] |  | 24
COCCCn1c(C(=O)O)cc2c(=O)n(C)c(=O)n(C)c21 [Fragment F9995-1074] |  | 41
